The source of these data is ChEMBL document CHEMBL6103540, “Recent Progress and Future Perspectives on Anti-Hyperuricemic Agents” (J Med Chem, 2024).

Structures are written as SMILES. pIC50: −log10 of the molar value.

As usually defined, the pIC50 is −log10 of the IC50, conventionally taken in molar units. Broadly, the inhibition is the share of the control response that was lost under treatment. Low values mean a weak effect, high ones a strong effect.

Experiment [1] has as its target T1, Xanthine dehydrogenase/oxidase (Homo sapiens, UniProt P47989). Nature of the experiment: Inhibition of Xanthine oxidase (unknown origin).
Experiment [2] has as its target T2, Solute carrier family 2, facilitated glucose transporter member 9 (Homo sapiens, UniProt Q9NRM0).
T2 sequence (Q9NRM0 whole entry): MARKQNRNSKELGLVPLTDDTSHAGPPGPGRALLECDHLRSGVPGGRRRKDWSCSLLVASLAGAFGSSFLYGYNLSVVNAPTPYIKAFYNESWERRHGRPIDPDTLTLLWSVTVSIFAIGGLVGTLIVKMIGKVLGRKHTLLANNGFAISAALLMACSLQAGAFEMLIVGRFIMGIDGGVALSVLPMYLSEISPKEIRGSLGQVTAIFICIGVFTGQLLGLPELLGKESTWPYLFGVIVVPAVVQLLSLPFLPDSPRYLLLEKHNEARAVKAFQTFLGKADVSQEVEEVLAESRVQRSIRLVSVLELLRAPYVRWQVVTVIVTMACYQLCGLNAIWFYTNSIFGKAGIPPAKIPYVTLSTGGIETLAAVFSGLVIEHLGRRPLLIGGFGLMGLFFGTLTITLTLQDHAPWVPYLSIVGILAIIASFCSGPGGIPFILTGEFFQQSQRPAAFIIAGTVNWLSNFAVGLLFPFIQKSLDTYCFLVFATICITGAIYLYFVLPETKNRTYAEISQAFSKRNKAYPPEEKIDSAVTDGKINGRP
Nature of the experiment: Inhibition of GLUT9 (unknown origin).

Experiment [3] has as its target T3, Solute carrier family 22 member 12 (Homo sapiens, UniProt Q96S37).
T3 sequence (Q96S37 whole entry): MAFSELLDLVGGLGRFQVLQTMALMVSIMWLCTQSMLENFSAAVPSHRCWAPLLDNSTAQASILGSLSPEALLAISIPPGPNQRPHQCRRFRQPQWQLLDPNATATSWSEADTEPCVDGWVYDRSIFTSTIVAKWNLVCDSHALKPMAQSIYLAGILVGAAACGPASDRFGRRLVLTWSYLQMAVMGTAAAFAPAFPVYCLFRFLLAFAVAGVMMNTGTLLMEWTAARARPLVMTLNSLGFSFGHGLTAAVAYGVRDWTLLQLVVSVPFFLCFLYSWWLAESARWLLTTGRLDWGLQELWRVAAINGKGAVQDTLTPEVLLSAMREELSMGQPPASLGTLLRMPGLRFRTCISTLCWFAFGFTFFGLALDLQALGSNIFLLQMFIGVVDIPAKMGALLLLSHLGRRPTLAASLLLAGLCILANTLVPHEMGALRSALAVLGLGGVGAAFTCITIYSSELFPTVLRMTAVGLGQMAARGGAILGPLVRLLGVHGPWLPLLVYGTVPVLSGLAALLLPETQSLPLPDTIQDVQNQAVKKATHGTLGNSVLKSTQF
The experiment can be described thus: Inhibition of URAT1 (unknown origin).

For experiment [4], the target named is T3, Solute carrier family 22 member 12. Nature of the experiment: Inhibition of human URAT1 stably expressed in HEK293 cells by measuring 14C-uric acid uptake pre-incubated for 15 mins followed by 14C-uric acid addition and measured for 30 mins by liquid scintillation counter analysis. The class given is cell-based.
The target of experiment [5] is T1, Xanthine dehydrogenase/oxidase. The experiment can be described thus: Inhibition of XOR (unknown origin).
Experiment [6] deals with T3, Solute carrier family 22 member 12. Nature of the experiment: Inhibition of human URAT1 expressed in HEK293T cells by assessed as 14C-uric acid uptake preincubated for 5 mins followed by 14C-uric acid addition and measured after 10 mins by liquid scintillation counting method. Type of experiment: cell-based.
The target is the same in experiment [7]. Nature of the experiment: Inhibition of URAT1 (unknown origin) expressed in human HK-2 cells at 10 uM relative to control. The class given is cell-based. Particulars: HK-2, human.
In experiment [8] the target is T1, Xanthine dehydrogenase/oxidase. The experiment can be described thus: Inhibition of xanthine oxidase (unknown origin) by absorbance based assay.
Experiment [9] deals with T3, Solute carrier family 22 member 12. The experiment can be described thus: Inhibition of human URAT1 stably expressed in HEK293T cells. The class given is cell-based.

T1 sequence (P47989 whole entry): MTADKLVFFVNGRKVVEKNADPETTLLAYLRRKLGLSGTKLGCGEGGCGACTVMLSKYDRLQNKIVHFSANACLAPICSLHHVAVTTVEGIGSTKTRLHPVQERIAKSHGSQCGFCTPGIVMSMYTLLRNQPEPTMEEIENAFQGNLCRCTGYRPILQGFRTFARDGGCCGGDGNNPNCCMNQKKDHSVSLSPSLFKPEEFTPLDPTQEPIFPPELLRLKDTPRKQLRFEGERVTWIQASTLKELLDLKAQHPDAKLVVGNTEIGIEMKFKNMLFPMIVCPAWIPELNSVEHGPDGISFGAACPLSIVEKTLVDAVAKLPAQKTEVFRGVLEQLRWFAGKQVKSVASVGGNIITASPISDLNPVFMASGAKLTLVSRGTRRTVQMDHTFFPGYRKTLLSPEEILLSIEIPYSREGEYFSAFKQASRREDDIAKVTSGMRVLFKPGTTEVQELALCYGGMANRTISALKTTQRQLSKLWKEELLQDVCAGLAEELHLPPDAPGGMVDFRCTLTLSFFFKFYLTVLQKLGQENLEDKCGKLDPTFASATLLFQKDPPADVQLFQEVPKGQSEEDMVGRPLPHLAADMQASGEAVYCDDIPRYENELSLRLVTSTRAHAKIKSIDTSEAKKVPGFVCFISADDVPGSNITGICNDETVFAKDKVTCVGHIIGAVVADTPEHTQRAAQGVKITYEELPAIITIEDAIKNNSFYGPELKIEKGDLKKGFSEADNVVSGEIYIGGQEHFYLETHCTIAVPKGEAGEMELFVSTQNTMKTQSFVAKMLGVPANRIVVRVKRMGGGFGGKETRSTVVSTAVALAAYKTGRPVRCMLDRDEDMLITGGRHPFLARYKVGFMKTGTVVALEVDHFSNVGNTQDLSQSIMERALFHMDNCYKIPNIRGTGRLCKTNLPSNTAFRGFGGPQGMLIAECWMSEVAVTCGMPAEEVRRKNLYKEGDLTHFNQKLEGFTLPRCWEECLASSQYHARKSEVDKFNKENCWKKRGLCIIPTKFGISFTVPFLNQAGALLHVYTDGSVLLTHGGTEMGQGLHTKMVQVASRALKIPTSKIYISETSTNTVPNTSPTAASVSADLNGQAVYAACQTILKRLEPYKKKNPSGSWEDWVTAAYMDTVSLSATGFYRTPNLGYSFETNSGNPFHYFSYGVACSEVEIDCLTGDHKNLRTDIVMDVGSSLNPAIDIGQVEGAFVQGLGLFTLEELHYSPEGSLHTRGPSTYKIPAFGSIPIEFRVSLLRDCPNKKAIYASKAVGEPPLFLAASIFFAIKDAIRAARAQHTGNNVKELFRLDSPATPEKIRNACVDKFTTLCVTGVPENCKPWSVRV

`O=c1c2cc(O)c(O)cc2oc2cc(OCc3ccccc3)cc(O)c12`: the pIC50 in experiment [1] is 5.48.

For `CC(C)=CCc1c(O)ccc2c1O[C@H](c1ccc(O)cc1)CC2=O` [ISOBAVACHIN], the pIC50 in [2] is 5.95; in experiment [1], 4.84; in experiment [3], 6.62. In turn, `CCCc1ccc(Cn2c(Br)nnc2SCC(=O)O)c2ccccc12` gave a pIC50 in experiment [4] of 7.04.

As to `CCn1c(=O)sc2cc(-c3ccc(C(=O)O)c(O)c3)ccc21`, the pIC50 in experiment [1] is 7.92; in experiment [3], 4.52. With `N#Cc1cc(-c2n[nH]c(-c3ccncc3)n2)ccn1` [TOPIROXOSTAT], the negative logarithm of the IC50 (pIC50) in experiment [5] is 7.82.

As for `O/N=C(\Cc1ccc(Br)cc1)c1ccc(O)cc1O`, the pIC50 in [1] is 5.48; in experiment [3], 6.84.

As to `O=C(O)C1(Sc2ccccc2N2CCOc3ccc(Br)cc32)CCC1`, the pIC50 in experiment [6] is 5.77. `O=C(/C=C/c1ccc(O)c2oc(-c3ccc(O)c(O)c3)cc12)O[C@H](Cc1ccc(O)c(O)c1)C(=O)O` had a negative logarithm of the IC50 (pIC50) in experiment [5] of 5.01. In the case of `COc1cc2c3c(c1OS(=O)(=O)c1ccc(F)cc1)-c1ccccc1C[C@H]3N(C)CC2`, in experiment [7], testing at 10 µM gave an inhibition of 61%. `Cc1nc(-c2ccc(OCC(C)C)c(C#N)c2)sc1C(=O)O` [FEBUXOSTAT] showed a pIC50 in [1] of 8.00.

Regarding `COc1ccc(C2CC(=O)c3c(O)cc(O)cc3O2)cc1O` (configuration not stated), the negative-log IC50 (pIC50) in [8] was 6.08. In experiment [9], `N#Cc1cc(-n2cnc(C(=O)O)c2)ccc1N1CCCCCC1` had a pIC50 of 4.97. Turning to `O=C(O)C1(Sc2ccnc3ccc(Br)cc23)CCC1` [SHR-4640], in experiment [3], the pIC50 is 7.28.
